The values that follow come from ChEMBL document CHEMBL1201862, “PubChem BioAssay data set” (2004).

The structures appear in SMILES notation.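 Growth conditions: 96-well plates. Treatment: test compound, 48 hours, 5 concentrations. Analysis: linear interpolation between bracketing concentrations; unreached endpoints set to highest concentration. GI50 = concentration required for 50% inhibition of growth.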 Calls of active or inactive are those of the source. Cut-off read from the data, not from the text of the source: active = GI50 up to about 1.1 µM and inactive = higher.

What all share (test): NCI-60 cell line screen, 48 h
Test [1] concerns M19-MEL.
Test [2] deals with XF498.
For test [3], the system named is DMS-114.
The test system of test [4] is DLD-1.
In test [5] the test system is Hs-578T.
Test [6] concerns MDA-MB-435.
Test [7] deals with MDA-MB-231.
The test system of test [8] is DU-145.
Test [9] relates to RXF 631.

`O=C(NN1C(=O)C(Cl)C1c1ccc([N+](=O)[O-])cc1)c1ccccc1O` (centres undefined): the figures for the GI50 in test [1], in test [2] and in [3] were > 100 µM (inactive), 93.1 µM (inactive) and > 100 µM (inactive), respectively.

Take `Nc1c(S(=O)(=O)O)cc2cc(S(=O)(=O)O)ccc2c1/N=N/c1ccc(-c2ccc(/N=N/c3c(N)c(S(=O)(=O)O)cc4cc(S(=O)(=O)O)ccc34)c(S(=O)(=O)O)c2)cc1`: the GI50 was > 100 µM (inactive) in [4], > 100 µM (inactive) in [1], > 64.6 µM (inactive) in [2] and > 100 µM (inactive) in [3].

For the compound `CC(C)N1CSC(=S)N(Cc2ccccc2)C1`, the GI50 in test [5] was > 10 µM (inactive); in [6] it was 3.84 µM (inactive).

Regarding `COc1cc2cc3c4cc(OC)c(OC)cc4cc[n+]3cc2cc1OC`, the GI50 was > 100 µM (inactive) in test [4], > 100 µM (inactive) in test [1], > 100 µM (inactive) in test [2] and 1 µM (active) in [3].

On to `S=CN1CCCCC1`, for which the GI50 in [5], in [7], in test [6] and in [8] was > 100 µM (inactive) in each case.

`N#C/C(=C\NC(=S)Nc1ccc(S(=O)(=O)Nc2ccccn2)cc1)C(N)=O`: the GI50 in [5], in [7], in test [6] and in test [8] was > 100 µM (inactive) in each case.

For `NN1C(=O)C(CCO)S/C1=N/N=C1/SC(CCO)C(=O)N1N` (centres undefined), the GI50 was > 100 µM (inactive) in test [4], > 100 µM (inactive) in [1], 16.1 µM (inactive) in [2] and > 100 µM (inactive) in [3].

For `CCOC(=O)C1=C(C)N(c2ccc(OC)cc2)C2(O)C=CC(O)=C3C(=O)c4ccccc4C(=O)C312` (centres undefined), the GI50 was 5.47 µM (inactive) in test [5], 14.3 µM (inactive) in test [7], 4.2 µM (inactive) in test [6] and 14.4 µM (inactive) in [8].

Consider `c1ccc(C(c2ccccc2)[P+](c2ccccc2)(c2ccccc2)c2ccccc2)cc1`, for which the GI50 is 2.1 µM (inactive) in test [4], 0.397 µM (active) in [1], 0.214 µM (active) in test [2] and 0.324 µM (active) in test [3].

Consider `CC1=C(C(=O)Nc2cccc(Cl)c2)C(c2ccccc2O)C(C(=O)Nc2cccc(Cl)c2)=C(C)N1`, for which the results for the GI50 in test [4], in test [1] and in [3] were 18.4 µM (inactive), 19.4 µM (inactive) and 22.4 µM (inactive), respectively.

For `CCOC(=O)c1cn(CC)c(=O)n2c1nc1ccccc12`, the values for the GI50 in [7], in test [6] and in test [8] were > 100 µM (inactive), > 100 µM (inactive) and 45.5 µM (inactive), respectively.

For `CC1(C)C(N2CCOCC2)CS1(=O)=O` (centres undefined), the GI50 in [5], in [7], in test [6] and in [8] was > 10 µM (inactive) throughout.

Take `CC(=O)NNc1nc(C)c(C(=O)NNC(=O)C(=O)Nc2ccc([N+](=O)[O-])cc2[N+](=O)[O-])s1`: the GI50 in test [4] is > 100 µM (inactive); in test [9], 68.9 µM (inactive); in [2], > 100 µM (inactive); in [3], 30.1 µM (inactive).

For the compound `Cc1cc(N(CCOS(C)(=O)=O)CCOS(C)(=O)=O)ccc1C=O`, the GI50 in test [5] is 18.5 µM (inactive); in [7], 28.5 µM (inactive); in test [6], 11.5 µM (inactive).

Turning to `CCOC(=O)C1=C(C)N(NC(N)=O)C2(O)CCCC(=O)C12C` (centres undefined), the GI50 in [4] is 94.4 µM (inactive); in test [9] it was > 100 µM (inactive); in test [2], > 100 µM (inactive); in [3] it was > 100 µM (inactive).

Turning to `CC(=O)NC(c1nc2cc(C)c(C)cc2[nH]1)c1nc2cc(C)c(C)cc2[nH]1`, the GI50 in [5] was 36.8 µM (inactive); in test [7] it was 26.1 µM (inactive); in test [6], 17.7 µM (inactive); in test [8] it was 20.2 µM (inactive).

As for `CC1(c2sccc2Cl)CC(c2sccc2Cl)=C(C#N)C(=C(C#N)C#N)N1` (centres undefined), the GI50 in [5] was 21.5 µM (inactive); in test [7] it was 21.9 µM (inactive); in test [6], 22 µM (inactive); in test [8] it was 16 µM (inactive).

As for `COc1ccc(NC(=O)C(=O)C(C(=O)c2ccccc2)C2OC(=O)c3ccccc32)c([N+](=O)[O-])c1` (centres undefined), the GI50 in test [4], in test [1], in test [2] and in [3] was > 100 µM (inactive) each time.

Consider `COc1cccc2[s+]snc12`, for which the GI50 in test [4] is 35.6 µM (inactive); in test [1], 22.8 µM (inactive); in [2] it was 18.8 µM (inactive).

For `CSc1nc(SC)c2cnn(CC3CO3)c2n1` (centres undefined), the GI50 in test [4] was 22.3 µM (inactive); in [1], 13.6 µM (inactive); in test [2] it was 22.4 µM (inactive); in test [3] it was 17.4 µM (inactive).

With `COc1cccc2c1C(=O)c1c(O)c3c(c(O)c1C2=O)CC(O)(C(=O)CO)CC3OC1CC(N)C(I)C(C)O1` (centres undefined), the GI50 was 2.54 µM (inactive) in test [4], 2.7 µM (inactive) in test [1], 6.64 µM (inactive) in test [2] and 1.63 µM (inactive) in test [3].

As to `Nc1nc(N)c(N=O)c(OCC2CCCCC2)n1`, the GI50 in test [5] is 6.73 µM (inactive); in test [7], 5.02 µM (inactive); in test [6] it was 14.3 µM (inactive); in test [8], 7.45 µM (inactive).

With `Cc1[nH]n(C2=NCCN2)c(=O)c1Cc1ccccc1`, the GI50 in [5], in test [7] and in test [6] was > 100 µM (inactive) in each case.
